# Measured values taken from patent US20040102524A1, “Method of treatment” (priority 2001, published 2004).
# System: uric acid levels
# Assay: Clinical data for reduction of uric acid levels in human volunteers
# Type: in vivo
# Parameters: Mean uric acid 24 hr. after dose: unit not given here
# Details: for mean uric acid blood level reduced by: 24 hours after administration vs baseline; for % at 24 hrs. (mean blood level of uric acid at 24 hours after administration as a percentage of the baseline level) / Mean uric acid 24 hr. after dose: oral tablets; for Mean uric acid 24 hr. after dose: plasma
# Experimental: Test subjects were orally administered tablets containing N-propanesulfonyl-6-[N-(5-bromo-2-(cyclopropylmethoxy)benzyl)-N-ethylamino]pyridazine-3-carboxamide, or a matching placebo was administered orally as tablets, with 200 mL of distilled water. The subjects were directed to remain semi-recumbent for six hours after dosing. A 4.9 mL sample of blood was taken into a tube containing lithium heparin anticoagulant, and plasma was separated by centrifugation for the clinical chemistry analysis at the pretrial medical examinations, pre-dose, 6 hours and 24 hours after dosing on each trial day. Concentrations of the uric acid were determined by standard analytical techniques.
# The listed percentages represent mean blood level of uric acid at 24 hours after administration of the test substance (active compound or placebo) as a percentage of the baseline uric acid level measured prior to administration. […] In particular at a dose of 400 mg the mean uric acid blood level is reduced by 29%. Doses of 800 mg and 1600 mg likewise reduce blood levels of uric acid by 33% and 42% respectively.
smiles,measurement,setting,value
CCCS(=O)(=O)NC(=O)c1ccc(N(CC)Cc2cc(Br)ccc2OCC2CC2)nn1 [N-propanesulfonyl-6-[N-(5-bromo-2-(cyclopropylmethoxy)benzyl)-N-ethylamino]pyridazine-3-carboxamide],mean uric acid blood level reduced by,dose of 400 mg,29%
same,mean uric acid blood level reduced by,dose of 800 mg,33%
same,mean uric acid blood level reduced by,dose of 1600 mg,42%
same,% at 24 hrs. (mean blood level of uric acid at 24 hours after administration as a percentage of the baseline level),dose 1 mg,98.8%
same,Mean uric acid 24 hr. after dose,"dose 1 mg, n=4",280
same,% at 24 hrs. (mean blood level of uric acid at 24 hours after administration as a percentage of the baseline level),dose 5 mg,90.1%
same,Mean uric acid 24 hr. after dose,"dose 5 mg, n=4",245
same,% at 24 hrs. (mean blood level of uric acid at 24 hours after administration as a percentage of the baseline level),dose 25 mg,93.2%
same,Mean uric acid 24 hr. after dose,"dose 25 mg, n=4",237
same,% at 24 hrs. (mean blood level of uric acid at 24 hours after administration as a percentage of the baseline level),dose 100 mg,90.0%
same,Mean uric acid 24 hr. after dose,"dose 100 mg, n=4",286
same,% at 24 hrs. (mean blood level of uric acid at 24 hours after administration as a percentage of the baseline level),dose 200 mg,85.2%
same,Mean uric acid 24 hr. after dose,"dose 200 mg, n=4",268
same,% at 24 hrs. (mean blood level of uric acid at 24 hours after administration as a percentage of the baseline level),dose 400 mg,70.6%
same,Mean uric acid 24 hr. after dose,"dose 400 mg, n=4",242
same,% at 24 hrs. (mean blood level of uric acid at 24 hours after administration as a percentage of the baseline level),dose 800 mg,66.7%
same,Mean uric acid 24 hr. after dose,"dose 800 mg, n=4",237
same,% at 24 hrs. (mean blood level of uric acid at 24 hours after administration as a percentage of the baseline level),dose 1600 mg,57.6%
same,Mean uric acid 24 hr. after dose,"dose 1600 mg, n=6",168
